# In paper PMC6372542 (Frontiers in Pediatrics, 2019):
# “And” between values parts separate entries of the source, which are not always exact repeats. Identical values can stand only once. Like-named read-outs stand apart in the source and are kept apart here.
# Experiments:
# [1] = Plasma concentrations of protease inhibitors, ritonavir and efavirenz (antiretroviral exposures); settings: for AUC / Cmax: human, in vivo; for Clast: plasma, median (interquartile range), range for lopinavir, median (range) for efavirenz
# Text: (§1) Study procedures were standardized across multiple study arms. The single pharmacokinetic visit included a medication history, adherence survey, and a CYP2D6 phenotype assessment (the other psychotropic study medications were primarily metabolized by CYP 2D6). Participants with HIV had to be taking their antiretroviral medications consistently for at least 4 weeks prior to sampling. […] Plasma samples were drawn at pre-dose and 2, 4, 6, 12, and 24-h post-dose.
# Plasma concentrations of primary protease inhibitors, ritonavir and efavirenz were measured at the University of California San Diego Pediatric Pharmacology Laboratory by validated reverse phase high performance liquid chromatography or mass spectrometry methods.
# [2] = cited from earlier work; for half-life: adolescents, ref [17]
# [3] = Non-compartmental plasma pharmacokinetics of sertraline and N-desmethylsertraline in HIV-infected and uninfected youth (IMPAACT P1080); settings: for C0: pre-dose plasma; for CL/F: po, non-compartmental apparent oral clearance; for concentration: read-out: Norm-C0
# Text: International Maternal Pediatric Adolescent AIDS Clinical Trials Network (IMPAACT) P1080 was a multicenter, pilot study of psychiatric and antiretroviral medication concentrations in HIV-1-infected and uninfected youth.
# as §1
# Analytes and internal standard were extracted with 600 μL of acetonitrile from 200 μL of plasma, then eluted from a Gemini C18 column in under 4 min using acetonitrile/water/formic acid (85:15:0.1, v/v/v) as the mobile phase.
# The area under the concentration vs. time curve from time 0–24 h post dose (AUC0−24) was estimated using the trapezoidal rule. Apparent oral clearance (CL/F), where F is bioavailability, was calculated as dose divided by AUC0−24. The apparent volume of distribution (V/F) was determined as CL/F divided by k, where k is the terminal slope of the log plasma concentration-time curve. The half-life (t1/2) was calculated as 0.693/k. All concentration data were normalized to dose (100 mg) and to weight (70 kg). Non-compartmental parameters were estimated with Phoenix® WinNonlin® (Certara L.P. (Pharsight), St. Louis, MO). Pharmacokinetic parameters were compared between HIV(–) and PI/r cohorts with Wilcoxon rank-sum tests, two-sided with significance set to 0.05. Statistical comparisons were not made with the EFV group due to the low enrollment/accrual in this cohort (n = 3).
# [4] = Sertraline population pharmacokinetics (NONMEM, one-compartment model at steady-state); assay type: in vivo, human; settings: for V/F / ka: typical population value, Estimate (% SE)
# Description: A one-compartment model at steady-state with first-order absorption and elimination best described the data (ADVAN2 TRANS2, FOCE with interaction). A combined (additive and proportional) residual error model was used. Covariates were screened individually on each pharmacokinetic parameter (CL/F, V/F, and ka). For all models, goodness of fit were assessed with diagnostic plots. All covariates that improved model fit at p < 0.05 were included in the multivariate screen.
# [5] = EFV cohort n = 3, median (minimum, maximum)
# [6] = PI/r cohort n = 12, median (interquartile range)
compound,measurement,setting,value
COC(=O)N[C@H](C(=O)N[C@@H](Cc1ccccc1)[C@@H](O)CN(Cc1ccc(-c2ccccn2)cc1)NC(=O)[C@@H](NC(=O)OC)C(C)(C)C)C(C)(C)C [Atazanavir],AUC,[1],27200 ng·h/mL
same,Cmax,[1],3800 ng/mL
same,Clast,[1],"1.2 (0.9, 2.6) μg/mL"
O=C1Nc2ccc(Cl)cc2[C@@](C#CC2CC2)(C(F)(F)F)O1 [Efavirenz],AUC,[1],24500 ng·h/mL
same,Cmax,[1],1300 ng/mL
same,Clast,[1],"1.3 (1.3, 3.4) μg/mL"
N[C@H]1CC[C@@H](c2ccc(Cl)c(Cl)c2)c2ccccc21 [N-desmethylsertraline],elimination half-life,"[2]; metabolite, ref [5]",62 to 104 h
CC(C)c1nc(CN(C)C(=O)N[C@H](C(=O)N[C@@H](Cc2ccccc2)C[C@H](O)[C@H](Cc2ccccc2)NC(=O)OCc2cncs2)C(C)C)cs1 [Ritonavir],AUC,[1],4900 ng·h/mL
same,Cmax,[1],600 ng/mL
same,Clast,[1],"0.2 (0.1, 0.4) μg/mL"
CN[C@H]1CC[C@@H](c2ccc(Cl)c(Cl)c2)c2ccccc21 [Sertraline],sertraline exposures lower in EFV participants than HIV(–) and PI/r groups,[3]; EFV cohort n = 3,~ 50%
same,C24,"[3]; EFV cohort n = 3, 24 h post-dose, median (minimum, maximum)","4.2 (2.9, 5.9) ng/mL"
same,Tmax,[3]; [5],"6 (4, 6) hr"
same,C0,[3]; [5],"6 ng/mL and 6.0 (3.0, 7.0) ng/mL"
same,"normalized trough concentrations, C0 and C24",[3]; HIV(-) and PI/r groups,18 to 33 ng/mL
same,sertraline exposure lower in the PI/r cohort than in HIV(–),[3]; PI/r cohort compared to HIV(–),~ 40% and 30–40%
same,Tmax,[3]; [6],"4 (4, 6) hr"
same,C0,[3]; [6],"10.0 (7.5, 15.9) ng/mL"
same,Tmax,"[3]; human, in vivo",4 h
same,Cmax,"[3]; human, in vivo, 0.7 mg/kg, Cmax, EFV cohort n = 3, median (minimum, maximum)",13.2 ng/mL
same,Cmax,"[3]; human, in vivo, 0.9 mg/kg, Cmax, PI/r cohort n = 12, median (interquartile range)",34.3 ng/mL
same,Cmax,"[3]; human, in vivo, 1.3 mg/kg, Cmax, HIV(-) cohort n = 16, median (interquartile range)",46.7 ng/mL
same,AUC(0-t),"[3]; human, in vivo, 100 mg, Norm-AUC0−24, EFV cohort n = 3, normalized to a 100 mg once daily dose and a weight of 70 kg, median (minimum, maximum)",473 ng·h/mL
same,AUC(0-t),"[3]; human, in vivo, 100 mg, Norm-AUC0−24, HIV(-) cohort n = 16, normalized to a 100 mg once daily dose and a weight of 70 kg, median (interquartile range)",1180 ng·h/mL
same,AUC(0-t),"[3]; human, in vivo, 100 mg, Norm-AUC0−24, PI/r cohort n = 12, normalized to a 100 mg once daily dose and a weight of 70 kg, median (interquartile range)",791 ng·h/mL
same,concentration at 24 h,"[3]; human, in vivo, 100 mg, Norm-C24, EFV cohort n = 3, normalized to 100 mg once daily and 70 kg, median (minimum, maximum)",12.8 ng/mL
same,concentration at 24 h,"[3]; human, in vivo, 100 mg, Norm-C24, HIV(-) cohort n = 16, normalized to 100 mg once daily and 70 kg, median (interquartile range)",32.7 ng/mL
same,concentration at 24 h,"[3]; human, in vivo, 100 mg, Norm-C24, PI/r cohort n = 12, normalized to 100 mg once daily and 70 kg, median (interquartile range)",20.1 ng/mL
same,Cmax,"[3]; human, in vivo, 100 mg, Norm-Cmax, EFV cohort n = 3, normalized to 100 mg once daily and 70 kg, median (minimum, maximum)",28.8 ng/mL
same,Cmax,"[3]; human, in vivo, 100 mg, Norm-Cmax, HIV(-) cohort n = 16, normalized to 100 mg once daily and 70 kg, median (interquartile range)",78.3 ng/mL
same,Cmax,"[3]; human, in vivo, 100 mg, Norm-Cmax, PI/r cohort n = 12, normalized to 100 mg once daily and 70 kg, median (interquartile range)",46.9 ng/mL
same,AUC(0-t),"[3]; human, in vivo, AUC0−24, EFV cohort n = 3, plasma, steady state, median (minimum, maximum)",145 ng·h/mL
same,AUC(0-t),"[3]; human, in vivo, AUC0−24, HIV(-) cohort n = 16, plasma, steady state, median (interquartile range)",652 ng·h/mL
same,AUC(0-t),"[3]; human, in vivo, AUC0−24, PI/r cohort n = 12, plasma, steady state, median (interquartile range)",486 ng·h/mL
same,concentration at 24 h,"[3]; human, in vivo, C24, EFV cohort n = 3, 24 h post-dose, median (minimum, maximum)",4.2 ng/mL
same,concentration at 24 h,"[3]; human, in vivo, C24, HIV(-) cohort n = 16, 24 h post-dose, median (interquartile range)",17.5 ng/mL
same,concentration at 24 h,"[3]; human, in vivo, C24, PI/r cohort n = 12, 24 h post-dose, median (interquartile range)",12.6 ng/mL
same,half-life,"[3]; human, in vivo, T1/2, EFV cohort n = 3, median (minimum, maximum)",11.1 h
same,half-life,"[3]; human, in vivo, T1/2, HIV(-) cohort n = 16, median (interquartile range)",26.4 h
same,half-life,"[3]; human, in vivo, T1/2, PI/r cohort n = 12, median (interquartile range)",18.1 h
same,CL/F,"[3]; human, in vivo, EFV cohort n = 3, median (minimum, maximum)",75 mL/min/kg
same,CL/F,"[3]; human, in vivo, HIV(-) cohort n = 16, median (interquartile range)",23.3 mL/min/kg
same,CL/F,"[3]; human, in vivo, PI/r cohort n = 12, median (interquartile range)",26.7 mL/min/kg
same,concentration,"[3]; EFV cohort n = 3, normalized to 100 mg once daily and 70 kg, median (minimum, maximum)",13.1 ng/mL
same,concentration,"[3]; HIV(-) cohort n = 16, normalized to 100 mg once daily and 70 kg, median (interquartile range)",33.3 ng/mL
same,concentration,"[3]; PI/r cohort n = 12, normalized to 100 mg once daily and 70 kg, median (interquartile range)",17.8 ng/mL
same,clearance higher than in geriatric population pharmacokinetic study,[4]; 115 L/h vs 83.1 L/h in geriatric patients with Alzheimer's Disease,38%
same,V/F,[4]; base model,53.8 L/kg
same,ka,[4]; base model,0.45 1/h and 0.45 (16.2) 1/h
same,V/F,[4]; final model,44.6 L/kg
same,ka,[4]; final model,0.42 1/h and 0.42 (14.7) 1/h
same,clearance,"[4]; human, plasma, oral, population model, for a typical 70 kg patient, read-out: estimated clearance (converted)",1920 mL/min
same,half-life,[2]; single dose,26.7 h
same,half-life,[2]; steady-state,15.3 h
same,elimination half-life,"[2]; adults, children, and adolescents, ref [5]",about 27 h
same,decrease of sertraline exposure (AUC0−24) by efavirenz,"[2]; adults, concomitant efavirenz, ref [13]",~ 40%
same,AUC0−24,"[2]; after multiple dosing in prior adult studies, normalized to a 100 mg dose, ref [20]",1038 to 1532 ng·h/mL
same,half-life at steady-state,"[2]; lower end of dose range of 50–200 mg, ref [15], [17]",15.3 h
same,sertraline exposure (AUC0−24 and Cmax) lower in children and adolescents,"[2]; plasma concentration adjusted for weight, compared to adults, ref [5], [9]",~ 22%
same,clearance,"[2]; population pharmacokinetic study of geriatric patients (median age = 76 years) with Alzheimer's Disease, ref [23]",83.1 L/h
same,AUC0−24,"[2]; previous pediatric studies, normalized to 100 mg dose and 70 kg weight, ref [15], [17]","883 to 2,535 ng·h/mL"
same,median sertraline trough,"[2]; therapeutic drug monitoring program, 100 mg daily doses, IQR 12–30 ng/mL, ref [21]",20 ng/mL
same,half-life at steady-state,"[2]; upper end of dose range of 50–200 mg, ref [15], [17]",27.2 h
